Test results reported in patent US9598532B2, “Terpolymers as pressure-sensitive adhesives” (Surmodics, Inc., priority 2010, dated 2017).

Experiment: In vivo elution of minocycline from the implant device
Conditions: within 72 hours
Description: The final implant device prepared above was pressed onto a silicone-release liner under normal ambient conditions (30-40% relative humidity). The implant device was vacuum sealed in foil pouches (with argon backflow) in a dry room (<20% relative humidity). The implant device was sterilized using 22-28 kGy of gamma radiation at a slow dose rate of 4-6 kGy/hour. Gamma irradiation was performed on dry ice, but can also be performed at ambient temperature. The bioactive agent content of the implant device was within +/−10% of the target dose. Greater than 80% minocycline eluted in vivo within 72 hours.

minocycline eluted in vivo: Greater than 80%
Structure (SMILES): CN(C)c1ccc(O)c2c1C[C@H]1C[C@H]3[C@H](N(C)C)C(O)=C(C(N)=O)C(=O)[C@@]3(O)C(O)=C1C2=O [Minocycline]
